The values that follow come from patent US6448249B1, “Substituted 1,2,4-triazolo[3,4-A]phthalazine derivatives as GABAα5 ligands” (Merck Sharp & Dohme Ltd., priority 1998, dated 2002).

Molecules are shown by their SMILES. Where only a bound is given, the exact number is not on record here.

The target in data set [1] is T1, human GABAA receptors containing the α5 subunit (Homo sapiens, UniProt P18507+P31644).
T1 construct: expressed in transfected cells; host or cells: Ltk- cells (mouse fibroblasts), stably expressing
T1 sequence (P31644 32-462): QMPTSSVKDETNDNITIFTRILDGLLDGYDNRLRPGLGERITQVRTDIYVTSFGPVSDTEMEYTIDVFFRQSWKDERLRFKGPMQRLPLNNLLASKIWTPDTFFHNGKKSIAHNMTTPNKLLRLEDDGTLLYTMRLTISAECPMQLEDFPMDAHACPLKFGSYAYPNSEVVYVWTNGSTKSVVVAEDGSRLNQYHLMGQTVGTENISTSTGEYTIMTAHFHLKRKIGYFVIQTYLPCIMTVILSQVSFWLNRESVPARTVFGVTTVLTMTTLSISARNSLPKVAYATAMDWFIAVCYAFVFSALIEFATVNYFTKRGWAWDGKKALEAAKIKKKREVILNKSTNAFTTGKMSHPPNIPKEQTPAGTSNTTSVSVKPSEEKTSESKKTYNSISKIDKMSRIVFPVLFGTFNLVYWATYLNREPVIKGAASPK
T1 sequence (P28472 26-473 partner): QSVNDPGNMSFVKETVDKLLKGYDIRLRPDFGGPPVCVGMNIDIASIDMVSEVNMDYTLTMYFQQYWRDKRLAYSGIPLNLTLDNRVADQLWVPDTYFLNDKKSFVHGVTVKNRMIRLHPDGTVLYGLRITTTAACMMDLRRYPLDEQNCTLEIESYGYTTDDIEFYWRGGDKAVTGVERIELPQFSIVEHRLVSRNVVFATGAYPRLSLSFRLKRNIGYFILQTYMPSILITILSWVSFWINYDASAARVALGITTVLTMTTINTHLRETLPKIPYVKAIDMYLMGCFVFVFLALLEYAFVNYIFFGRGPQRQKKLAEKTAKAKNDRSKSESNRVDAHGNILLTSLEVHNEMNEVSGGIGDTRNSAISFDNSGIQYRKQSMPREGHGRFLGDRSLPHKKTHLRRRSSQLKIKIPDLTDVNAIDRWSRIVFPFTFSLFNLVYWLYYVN
T1 sequence (P18507 40-467 limits assumed): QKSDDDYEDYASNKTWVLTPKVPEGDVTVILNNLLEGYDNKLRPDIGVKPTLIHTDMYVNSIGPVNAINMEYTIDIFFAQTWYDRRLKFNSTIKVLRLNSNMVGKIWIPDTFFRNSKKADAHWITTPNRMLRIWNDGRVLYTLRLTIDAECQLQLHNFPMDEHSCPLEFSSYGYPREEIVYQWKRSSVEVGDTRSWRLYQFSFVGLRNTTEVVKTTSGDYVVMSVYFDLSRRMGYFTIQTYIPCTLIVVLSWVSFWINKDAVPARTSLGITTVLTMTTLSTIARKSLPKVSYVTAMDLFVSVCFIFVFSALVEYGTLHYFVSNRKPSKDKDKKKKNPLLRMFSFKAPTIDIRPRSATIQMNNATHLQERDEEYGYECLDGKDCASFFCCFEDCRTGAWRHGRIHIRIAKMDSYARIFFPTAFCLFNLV
Description: [3H]-flumazenil (Ro 15-1788) displacement binding assay. The following applies: α5β3γ2 stably expressed in Ltk− cells; read-out: Ki value for displacement of [3H]Ro 15-1788 from the α5 subunit of the human GABAA receptor. How it is done: Phosphate buffered saline (PBS).
Assay buffer: 10 mM KH2PO4, 100 mM KCl, pH 7.4 at room temperature.
[^3H]-Flumazenil (18 nM for α1β3γ2 cells; 18 nM for α2β3γ2 cells; 10 nM for α3β3γ2 cells; 10 nM for α5β3γ2 cells) in assay buffer.
Flunitrazepam 100 μM in assay buffer.
Cells resuspended in assay buffer (1 tray to 10 ml).
Supernatant is removed from cells. PBS (approximately 20 ml) is added. The cells are scraped and placed in a 50 ml centrifuge tube. The procedure is repeated with a further 10 ml of PBS to ensure that most of the cells are removed. The cells are pelleted by centrifuging for 20 min at 3000 rpm in a benchtop centrifuge, and then frozen if desired. The pellets are resuspended in 10 ml of buffer per tray (25 cm×25 cm) of cells.
Can be carried out in deep 96-well plates or in tubes. Each tube contains:
50 μl of [^3H]-flumazenil (final concentration for α1β3γ2: 1.8 nM; for α2β3γ2: 1.8 nM; for α3β3γ2: […]; for α5β3γ2: 1.0nM). […]
Assays are incubated for 1 hour at […], then filtered using either a Tomtec or Brandel cell harvester onto GF/B filter followed by 3×3 ml washes with ice cold assay buffer. Filters are dried and counted by liquid scintillation counting. […] Binding parameters are determined by non-linear least squares regression analysis, from which the inhibition constant Ki can be calculated for the test compound.

Another data set deals with cognition. Description: rat water maze test (Morris). It is filed as in vivo. An excerpt: Cognition enhancement can be shown by testing the compound in the Morris watermaze as reported by McNamara and Skelton, Psychobiology, 21:101-108. The functional efficacy at the various receptor subtypes can be calculated using the method disclosed in WO-A-9625948.
A short description of data set [2]: receptor occupancy at the minimum effective dose. The conditions noted are these: Rattus norvegicus; at dose of 0.3 mg/kg. It is filed as in vivo.

Regarding `Cc1cc(-c2nnc3c4ccccc4c(OCc4cn(C)nn4)nn23)no1` [compound of the present invention, 3-(5-methylisoxazol-3-yl)-6-(1-methyl-1,2,3-triazol-4-yl)methyloxy-1,2,4-triazolo[3,4-a]phthalazine], the Ki in data set [1] was no more than 100 nM. For the same compound, the “cognition enhancement in the rat water maze test” value in the data set on cognition (demonstrated at 0.3 mg/kg and also at 3 mg/kg) is given as “enhance cognition”. The “minimum effective dose for cognition enhancement” value with cognition (rat water maze) worked out at 0.3 mg/kg. This compound showed a receptor occupancy at 0.3 mg/kg in data set [2] of 40%.

In the case of `Cc1cc(-c2nnc3c4ccccc4c(OCc4cccc(Br)n4)nn23)no1` [Reference Example 2, 6-(6-Bromopyridin-2-yl)methyloxy-3-(5-methylisoxazol-3-yl)-1,2,4-triazolo[3,4-a]phthalazine], the melting point was 247.5 to 249 °C.
